The values below come from US20260070945A1, “MACROCYCLIC IMMUNOMODULATORS” (Bristol-Myers Squibb Company, priority 2022, published 2026).

The structures appear in SMILES notation. Where a SMILES comes first, the peptide text is derived from it. Bridges are numbered along the chain shown (N, C = ends). [ ]: non-standard residue; d: D form. The star is where a group is joined. Bip = N[C@@H](Cc1ccc(-c2ccccc2)cc1)C(=O)O; 4Pal = N[C@@H](Cc1ccncc1)C(=O)O; Cha = N[C@@H](CC1CCCCC1)C(=O)O; Carboxymethyl = O=C(O)C*; NMeA = CN[C@@H](C)C(=O)O; Orn = NCCC[C@H](N)C(=O)O; Aun = NCCCCCCCCCCC(=O)O; Dab = NCC[C@H](N)C(=O)O; AEEA = NCCOCCOCC(=O)O

In this assay the target is T1, PD-1/PD-L1 interaction (PE-labeled human PD-L1-Ig binding to Jurkat cell line over-expressing human PD-1) (Homo sapiens, UniProt Q15116).
T1 construct: expressed in transfected cells; host or cells: Jurkat
T1 sequence (Q15116 25-288): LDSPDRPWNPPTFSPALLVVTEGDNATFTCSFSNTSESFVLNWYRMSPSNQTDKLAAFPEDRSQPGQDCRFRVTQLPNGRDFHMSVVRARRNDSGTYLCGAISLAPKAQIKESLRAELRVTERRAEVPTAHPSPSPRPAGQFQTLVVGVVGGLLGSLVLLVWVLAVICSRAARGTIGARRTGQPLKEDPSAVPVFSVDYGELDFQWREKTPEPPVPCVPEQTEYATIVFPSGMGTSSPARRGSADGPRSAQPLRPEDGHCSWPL
In words: Jurkat-PD-1 Cell Binding High-Content Screening Assay (CBA). The conditions noted are these: Jurkat-hPD-1 cells, PE-labeled PD-L1-Ig 20 nM final; read-out: Jurkat HPD1 PDL1 IC50. The method, boiled down: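 Jurkat cells overexpressing human PD-1 (8×10^3/well, DMEM + 10% FCS) preincubated with compound 2 h at 37 °C, then PE-labelled human PD-L1-Ig (20 nM final) for 1 h. Cells fixed in paraformaldehyde with Hoechst 33342; bound PD-L1 quantified by high-content imaging.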
A word on the IC50: it is the point on the concentration scale where inhibition reaches its midpoint. With `CC(C)C[C@H]1NC(=O)[C@H](C)N(C)C(=O)[C@H](Cc2ccc(OCC(=O)O)cc2)NC(=O)[C@H](Cc2ccc(-c3ccccc3)cc2)NC(=O)[C@H](Cc2ccc(OCC(=O)O)cc2)NC(=O)[C@H](Cc2c[nH]c3ccccc23)NC(=O)[C@H](CC(=O)O)NC(=O)[C@H](Cc2ccncc2)NC(=O)[C@H](Cc2ccc(OCC(=O)O)cc2)NC(=O)CSC[C@@H](C(=O)N[C@@H](CCN)C(=O)NCCOCCOCC(=O)NCCCCCCCCCCC(=O)O)NC(=O)[C@H](CCCN)NC(=O)[C@H](C(C)C)NC(=O)[C@H](CC2CCCCC2)NC(=O)[C@H](CC(N)=O)NC1=O` [Example 1380] ({CH2CO}-Y(Carboxymethyl)[4Pal]DWY(Carboxymethyl)[Bip]Y(Carboxymethyl)[NMeA][dL]N[Cha]V[Orn]C[Dab][AEEA][Aun]-OH; thioether N-14), the IC50 stood at 119 nM.
As for `CC(C)C[C@H]1NC(=O)[C@H](C)N(C)C(=O)[C@H](Cc2ccc(OCC(=O)O)cc2)NC(=O)[C@H](Cc2ccc(-c3ccccc3)cc2)NC(=O)[C@H](Cc2ccc(OCC(=O)O)cc2)NC(=O)[C@H](Cc2c[nH]c3ccccc23)NC(=O)[C@H](CC(=O)O)NC(=O)[C@H](Cc2ccncc2)NC(=O)[C@H](Cc2ccc(OCC(=O)O)cc2)NC(=O)CSC[C@@H](C(=O)N[C@@H](CCN)C(=O)NCCOCCOCC(=O)NCCCCCCCCCCC(=O)O)NC(=O)[C@H]([C@@H](C)O)NC(=O)[C@H](C(C)C)NC(=O)[C@H](CC2CCCCC2)NC(=O)[C@H](CCN)NC1=O` [Example 1381] ({CH2CO}-Y(Carboxymethyl)[4Pal]DWY(Carboxymethyl)[Bip]Y(Carboxymethyl)[NMeA][dL][Dab][Cha]VTC[Dab][AEEA][Aun]-OH; thioether N-14), the IC50 was determined as 27.4 nM.
Consider `CC(C)C[C@H]1NC(=O)[C@H](C)N(C)C(=O)[C@H](Cc2ccc(OCC(=O)O)cc2)NC(=O)[C@H](Cc2ccc(-c3ccccc3)cc2)NC(=O)[C@H](Cc2ccc(OCC(=O)O)cc2)NC(=O)[C@H](Cc2c[nH]c3ccccc23)NC(=O)[C@H](CC(=O)O)NC(=O)[C@H](Cc2ccncc2)NC(=O)[C@H](Cc2ccc(OCC(=O)O)cc2)NC(=O)CSC[C@@H](C(=O)N[C@@H](CCCN)C(=O)NCCOCCOCC(=O)NCCCCCCCCCCC(=O)O)NC(=O)[C@H]([C@@H](C)O)NC(=O)[C@H](C(C)C)NC(=O)[C@H](CC2CCCCC2)NC(=O)[C@H](CCN)NC1=O` [Example 1382] ({CH2CO}-Y(Carboxymethyl)[4Pal]DWY(Carboxymethyl)[Bip]Y(Carboxymethyl)[NMeA][dL][Dab][Cha]VTC[Orn][AEEA][Aun]-OH; thioether N-14), for which the IC50 worked out at 110 nM.
To `CC(C)C[C@H]1NC(=O)[C@H](C)N(C)C(=O)[C@H](Cc2ccc(OCC(=O)O)cc2)NC(=O)[C@H](Cc2ccc(-c3ccccc3)cc2)NC(=O)[C@H](Cc2ccc(OCC(=O)O)cc2)NC(=O)[C@H](Cc2c[nH]c3ccccc23)NC(=O)[C@H](CC(=O)O)NC(=O)[C@H](Cc2ccc(OCC(=O)O)cc2)NC(=O)[C@H]([C@@H](C)O)NC(=O)CSC[C@@H](C(=O)N[C@@H](CCN)C(=O)NCCOCCOCC(=O)NCCCCCCCCCCC(=O)O)NC(=O)[C@H]([C@@H](C)O)NC(=O)[C@H](C(C)C)NC(=O)[C@H](CC2CCCCC2)NC(=O)[C@H](CC(N)=O)NC1=O` [Example 1383] ({CH2CO}-TY(Carboxymethyl)DWY(Carboxymethyl)[Bip]Y(Carboxymethyl)[NMeA][dL]N[Cha]VTC[Dab][AEEA][Aun]-OH; thioether N-14) belongs 101 nM; to `CC(C)C[C@H]1NC(=O)[C@H](C)N(C)C(=O)[C@H](Cc2ccc(OCC(=O)O)cc2)NC(=O)[C@H](Cc2ccc(-c3ccccc3)cc2)NC(=O)[C@H](Cc2ccc(OCC(=O)O)cc2)NC(=O)[C@H](Cc2c[nH]c3ccccc23)NC(=O)[C@H](CC(=O)O)NC(=O)[C@H](Cc2ccc(OCC(=O)O)cc2)NC(=O)[C@H]([C@@H](C)O)NC(=O)CSC[C@@H](C(=O)N[C@@H](CCN)C(=O)NCCOCCOCC(=O)NCCCCCCCCCCC(=O)O)NC(=O)[C@H](CCCN)NC(=O)[C@H](C(C)C)NC(=O)[C@H](CC2CCCCC2)NC(=O)[C@H](CC(N)=O)NC1=O` [Example 1384] ({CH2CO}-TY(Carboxymethyl)DWY(Carboxymethyl)[Bip]Y(Carboxymethyl)[NMeA][dL]N[Cha]V[Orn]C[Dab][AEEA][Aun]-OH; thioether N-14), 193 nM; to `CC(C)C[C@H]1NC(=O)[C@H](C)N(C)C(=O)[C@H](Cc2ccc(OCC(=O)O)cc2)NC(=O)[C@H](Cc2ccc(-c3ccccc3)cc2)NC(=O)[C@H](Cc2ccc(OCC(=O)O)cc2)NC(=O)[C@H](Cc2c[nH]c3ccccc23)NC(=O)[C@H](CC(=O)O)NC(=O)[C@H](Cc2ccc(OCC(=O)O)cc2)NC(=O)[C@H]([C@@H](C)O)NC(=O)CSC[C@@H](C(=O)N[C@@H](CCN)C(=O)NCCOCCOCC(=O)NCCCCCCCCCCC(=O)O)NC(=O)[C@H](CCC(=O)O)NC(=O)[C@H](C(C)C)NC(=O)[C@H](CC2CCCCC2)NC(=O)[C@H](CC(N)=O)NC1=O` [Example 1386] ({CH2CO}-TY(Carboxymethyl)DWY(Carboxymethyl)[Bip]Y(Carboxymethyl)[NMeA][dL]N[Cha]VEC[Dab][AEEA][Aun]-OH; thioether N-14), 137 nM.
To `CC(C)C[C@H]1NC(=O)[C@H](C)N(C)C(=O)[C@H](Cc2ccc(OCC(=O)O)cc2)NC(=O)[C@H](Cc2ccc(-c3ccccc3)cc2)NC(=O)[C@H](Cc2ccc(OCC(=O)O)cc2)NC(=O)[C@H](Cc2c[nH]c3ccccc23)NC(=O)[C@H](CC(=O)O)NC(=O)[C@H](Cc2ccc(OCC(=O)O)cc2)NC(=O)[C@H]([C@@H](C)O)NC(=O)CSC[C@@H](C(=O)N[C@@H](CCCN)C(=O)NCCOCCOCC(=O)NCCCCCCCCCCC(=O)O)NC(=O)[C@H]([C@@H](C)O)NC(=O)[C@H](C(C)C)NC(=O)[C@H](CC2CCCCC2)NC(=O)[C@H](CC(N)=O)NC1=O` [Example 1387] ({CH2CO}-TY(Carboxymethyl)DWY(Carboxymethyl)[Bip]Y(Carboxymethyl)[NMeA][dL]N[Cha]VTC[Orn][AEEA][Aun]-OH; thioether N-14) belongs 401 nM; to `CC(C)C[C@H]1NC(=O)[C@H](C)N(C)C(=O)[C@H](Cc2ccc(OCC(=O)O)cc2)NC(=O)[C@H](Cc2ccc(-c3ccccc3)cc2)NC(=O)[C@H](Cc2ccc(OCC(=O)O)cc2)NC(=O)[C@H](Cc2c[nH]c3ccccc23)NC(=O)[C@H](CC(=O)O)NC(=O)[C@H](Cc2ccc(OCC(=O)O)cc2)NC(=O)[C@H]([C@@H](C)O)NC(=O)CSC[C@@H](C(=O)N[C@@H](CCCN)C(=O)NCCOCCOCC(=O)NCCCCCCCCCCC(=O)O)NC(=O)[C@H](CCC(=O)O)NC(=O)[C@H](C(C)C)NC(=O)[C@H](CC2CCCCC2)NC(=O)[C@H](CC(N)=O)NC1=O` [Example 1388] ({CH2CO}-TY(Carboxymethyl)DWY(Carboxymethyl)[Bip]Y(Carboxymethyl)[NMeA][dL]N[Cha]VEC[Orn][AEEA][Aun]-OH; thioether N-14), 660 nM.
For the molecule `CC(C)C[C@H]1NC(=O)[C@H](C)N(C)C(=O)[C@H](Cc2ccc(OCC(=O)O)cc2)NC(=O)[C@H](Cc2ccc(-c3ccccc3)cc2)NC(=O)[C@H](Cc2ccc(OCC(=O)O)cc2)NC(=O)[C@H](Cc2c[nH]c3ccccc23)NC(=O)[C@H](CC(=O)O)NC(=O)[C@H](Cc2ccc(OCC(=O)O)cc2)NC(=O)[C@H]([C@@H](C)O)NC(=O)CSC[C@@H](C(=O)N[C@@H](CCCN)C(=O)NCCOCCOCC(=O)NCCCCCCCCCCC(=O)O)NC(=O)[C@H](CO)NC(=O)[C@H](C(C)C)NC(=O)[C@H](CC2CCCCC2)NC(=O)[C@H](CC(N)=O)NC1=O` [Example 1389] ({CH2CO}-TY(Carboxymethyl)DWY(Carboxymethyl)[Bip]Y(Carboxymethyl)[NMeA][dL]N[Cha]VSC[Orn][AEEA][Aun]-OH; thioether N-14), the IC50 turned out to be 227 nM.
Regarding `CC(C)C[C@H]1NC(=O)[C@H](C)N(C)C(=O)[C@H](Cc2ccc(OCC(=O)O)cc2)NC(=O)[C@H](Cc2ccc(-c3ccccc3)cc2)NC(=O)[C@H](Cc2ccc(OCC(=O)O)cc2)NC(=O)[C@H](Cc2c[nH]c3ccccc23)NC(=O)[C@H](CC(=O)O)NC(=O)[C@H](Cc2ccc(OCC(=O)O)cc2)NC(=O)[C@H]([C@@H](C)O)NC(=O)CSC[C@@H](C(=O)N[C@@H](CCN)C(=O)NCCOCCOCC(=O)NCCCCCCCCCCC(=O)O)NC(=O)[C@H]([C@@H](C)O)NC(=O)[C@H](C(C)C)NC(=O)[C@H](CC2CCCCC2)NC(=O)[C@H](CCN)NC1=O` [Example 1390] ({CH2CO}-TY(Carboxymethyl)DWY(Carboxymethyl)[Bip]Y(Carboxymethyl)[NMeA][dL][Dab][Cha]VTC[Dab][AEEA][Aun]-OH; thioether N-14), the IC50 turned out to be 27.3 nM.
To `CC(C)C[C@H]1NC(=O)[C@H](C)N(C)C(=O)[C@H](Cc2ccc(OCC(=O)O)cc2)NC(=O)[C@H](Cc2ccc(-c3ccccc3)cc2)NC(=O)[C@H](Cc2ccc(OCC(=O)O)cc2)NC(=O)[C@H](Cc2c[nH]c3ccccc23)NC(=O)[C@H](CC(=O)O)NC(=O)[C@H](Cc2ccc(OCC(=O)O)cc2)NC(=O)[C@H]([C@@H](C)O)NC(=O)CSC[C@@H](C(=O)N[C@@H](CCN)C(=O)NCCOCCOCC(=O)NCCCCCCCCCCC(=O)O)NC(=O)[C@H](CO)NC(=O)[C@H](C(C)C)NC(=O)[C@H](CC2CCCCC2)NC(=O)[C@H](CCN)NC1=O` [Example 1391] ({CH2CO}-TY(Carboxymethyl)DWY(Carboxymethyl)[Bip]Y(Carboxymethyl)[NMeA][dL][Dab][Cha]VSC[Dab][AEEA][Aun]-OH; thioether N-14) belongs 25.8 nM; to `CC(C)C[C@H]1NC(=O)[C@H](C)N(C)C(=O)[C@H](Cc2ccc(OCC(=O)O)cc2)NC(=O)[C@H](Cc2ccc(-c3ccccc3)cc2)NC(=O)[C@H](Cc2ccc(OCC(=O)O)cc2)NC(=O)[C@H](Cc2c[nH]c3ccccc23)NC(=O)[C@H](CC(=O)O)NC(=O)[C@H](Cc2ccc(OCC(=O)O)cc2)NC(=O)[C@H]([C@@H](C)O)NC(=O)CSC[C@@H](C(=O)N[C@@H](CCN)C(=O)NCCOCCOCC(=O)NCCCCCCCCCCC(=O)O)NC(=O)[C@H](CCC(=O)O)NC(=O)[C@H](C(C)C)NC(=O)[C@H](CC2CCCCC2)NC(=O)[C@H](CCN)NC1=O` [Example 1392] ({CH2CO}-TY(Carboxymethyl)DWY(Carboxymethyl)[Bip]Y(Carboxymethyl)[NMeA][dL][Dab][Cha]VEC[Dab][AEEA][Aun]-OH; thioether N-14), 62.5 nM.
